For one data set, the target named is PD-1/PD-L1 (Homo sapiens (Human), UniProt Q9NZQ7). Put plainly: PD-1/PD-L1 Binding Assay (Alphascreen). The method, boiled down: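 PD-1/PD-L1 binding detected by anti-6×His acceptor and streptavidin donor beads after 120 min in the dark at 25 °C. Beforehand, the two proteins were incubated 15 min at 25 °C with inhibitor at 0.015–300 nM (1% DMSO). IC50 comes from a log concentration–response curve.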

The nature of data set [1]: Pharmacokinetic Assay, single oral dose 5 mg/kg (Table 12). Format: in vivo. The settings on record: mouse, plasma concentration, C57 female mice, single oral dose 5 mg/kg. The procedure: Adult C57 female mice were received to single-dose of the test compounds with 15% DMSO, 10% Kolliphor^@HS 15 and 75% saline as excipients, the mice (n=3) were giving oral administration (intragastric administration) with the compounds at a dose of 5 mg/kg. Time of blood collection: 30 min, 2 h, 4 h. approximately 0.1 mL of whole blood was collected from retro-orbital venous plexus, and placed into tubes that contained K2-EDTA as an anticoagulant. The whole blood were centrifuged at 4° C. and 4000 rpm for 10 min. The plasma was transferred into centrifuge tubes, and stored at −20° C. until being analyzed. Concentrations of test compounds in the plasma samples were analyzed with liquid chromatography-tandem mass spectrometry (LC-MS/MS). Plasma concentration-time data of individual animals was analyzed using Microsoft Excel 2010.

Among the data in patent US12187713B2, “Immunomodulators, compositions and methods thereof” (Betta Pharmaceuticals Co., Ltd, priority 2019, dated 2025) are IC50 and concentration values, retold here.

Sequence of PD-1/PD-L1 (Q9NZQ7 19-238): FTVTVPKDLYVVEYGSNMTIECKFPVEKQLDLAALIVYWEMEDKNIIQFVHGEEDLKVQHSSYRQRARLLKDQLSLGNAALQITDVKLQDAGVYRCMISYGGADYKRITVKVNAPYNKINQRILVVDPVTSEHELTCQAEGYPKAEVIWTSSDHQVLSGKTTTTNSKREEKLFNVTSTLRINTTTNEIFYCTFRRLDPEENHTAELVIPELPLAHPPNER

In turn, `Cc1c(-c2nc3cc(CN4CCC(F)C4)c(OC(F)F)cc3o2)cccc1-c1cccc(-c2nc3cc(CN4CCC[C@H]4C(=O)O)c(OC(F)F)cc3o2)c1C` (stereo partly drawn) [Example 10, ((6-(difluoromethoxy)-2-(3′-(6-(difluoromethoxy)-5-((3-fluoropyrrolidin-1-yl)methyl)benzo[d]oxazol-2-yl)-2,2′-dimethyl-[1,1′-biphenyl]-3-yl)benzo[d]oxazol-5-yl)methyl)-L-proline] yielded an IC50 on PD-1/PD-L1 (numeric values) of 19 nM. In data set [1], this molecule gave a concentration at 0.5 h of 80.9 ng/mL, a concentration at 2 h of 221 ng/mL and a concentration at 4 h of 214 ng/mL.

`Cc1c(-c2nc3cc(CN4CCC[C@H]4C(=O)O)c(OC(F)F)cc3o2)cccc1-c1cccc(-c2nc3cc(CN4CCCC4)cc(C#N)c3o2)c1C` [Example 127, ((2-(3′-(7-cyano-5-(pyrrolidin-1-ylmethyl)benzo[d]oxazol-2-yl)-2,2′-dimethyl-[1,1′-biphenyl]-3-yl)-6-(difluoromethoxy)benzo[d]oxazol-5-yl)methyl)-L-proline] yielded an IC50 at PD-1/PD-L1 (numeric values) of 3.1 nM. Further, in data set [1], the concentration at 0.5 h amounted to 61.3 ng/mL, the concentration at 2 h was determined as 253 ng/mL and the concentration at 4 h was determined as 216 ng/mL.

Turning to `Cc1c(-c2nc3cc(CN4CCC[C@H]4C(=O)O)c(OC(F)F)cc3o2)cccc1-c1cccc(-c2nc3cc(CN4CCC(C#N)C4)cc(C#N)c3o2)c1C` (stereo partly drawn) [Example 142, ((2-(3′-(7-cyano-5-((3-cyanopyrrolidin-1-yl)methyl)benzo[d]oxazol-2-yl)-2,2′-dimethyl-[1,1′-biphenyl]-3-yl)-6-(difluoromethoxy)benzo[d]oxazol-5-yl)methyl)-L-proline], the IC50 at PD-1/PD-L1 (range symbols) was in the range of 0.1 to 5 nM. In data set [1], this molecule returned a concentration at 0.5 h of 211 ng/mL, a concentration at 2 h of 243 ng/mL and a concentration at 4 h of 171 ng/mL.

At PD-1/PD-L1 (numeric values), `Cc1c(-c2ccc3c(c2)CCNC3)cccc1-c1cccc(-c2nc3cc(CN4CCC[C@H]4C(=O)O)c(OC(F)F)cc3o2)c1C` [Example 288, ((6-(difluoromethoxy)-2-(2,2′-dimethyl-3′-(1,2,3,4-tetrahydroisoquinolin-6-yl)-[1,1′-biphenyl]-3-yl)benzo[d]oxazol-5-yl)methyl)-L-proline] returned an IC50 of 1.5 nM. In data set [1], the concentration at 0.5 h was 8.36 ng/mL, the concentration at 2 h was 25.4 ng/mL and the concentration at 4 h stood at 9.68 ng/mL.

In turn, `Cc1c(-c2nc3cc(CN4CCC[C@H]4C(=O)O)c(OC(F)F)cc3o2)cccc1-c1cccc(-c2nc3cc(CN4CC[C@@H](C#N)C4)cc(C#N)c3o2)c1C` [Example 165, ((2-(3′-(7-cyano-5-(((R)-3-cyanopyrrolidin-1-yl)methyl)benzo[d]oxazol-2-yl)-2,2′-dimethyl-[1,1′-biphenyl]-3-yl)-6-(difluoromethoxy)benzo[d]oxazol-5-yl)methyl)-L-proline] had an IC50 on PD-1/PD-L1 (range symbols) of 0.1 to 5 nM. In data set [1], this molecule showed a concentration at 0.5 h of 376 ng/mL, a concentration at 2 h of 404 ng/mL and a concentration at 4 h of 219 ng/mL.

Consider `Cc1c(-c2nc3cc(CN4CCC[C@H]4C(=O)O)c(OC(F)F)cc3o2)cccc1-c1cccc(-c2nc3cc(CN4CCCC4)c(F)c(F)c3n2CC(F)(F)F)c1C` [Example 299, ((2-(3′-(6,7-difluoro-5-(pyrrolidin-1-ylmethyl)-1-(2,2,2-trifluoroethyl)-1H-benzo[d]imidazol-2-yl)-2,2′-dimethyl-[1,1′-biphenyl]-3-yl)-6-(difluoromethoxy)benzo[d]oxazol-5-yl)methyl)-L-proline], for which, at PD-1/PD-L1 (range symbols), the IC50 was > 50 nM. In data set [1], the concentration at 0.5 h amounted to 27.9 ng/mL, the concentration at 2 h was found to be 212 ng/mL and the concentration at 4 h is 89.2 ng/mL.

`Cc1c(-c2nc3cc(CN4CCC[C@H]4C(=O)O)c(OC(F)F)cc3o2)cccc1-c1cccc(-c2nc3cc(CN4CC5CC4C5)cc(C(F)(F)F)c3o2)c1C` [Example 89]: the IC50 at PD-1/PD-L1 (range symbols) lay in the range of 0.1 to 5 nM. In data set [1], this molecule had a concentration at 0.5 h of 21.3 ng/mL, a concentration at 2 h of 124 ng/mL and a concentration at 4 h of 109 ng/mL.

For `Cc1c(-c2nc3cc(CN4CC(C#N)C4)c(OC(F)F)cc3o2)cccc1-c1cccc(-c2nc3cc(CN4CCC[C@H]4C(=O)O)c(OC(F)F)cc3o2)c1C` [Example 80, ((2-(3′-(5-((3-cyanoazetidin-1-yl)methyl)-6-(difluoromethoxy)benzo[d]oxazol-2-yl)-2,2′-dimethyl-[1,1′-biphenyl]-3-yl)-6-(difluoromethoxy)benzo[d]oxazol-5-yl)methyl)-L-proline], the IC50 at PD-1/PD-L1 (range symbols) was 5 to 50 nM. Further, in data set [1], the concentration at 0.5 h is 247 ng/mL, the concentration at 2 h came to 299 ng/mL and the concentration at 4 h amounted to 167 ng/mL.

`Cc1c(-c2nc3cc(CN4CCC[C@H]4C(=O)O)c(OC(F)F)cc3o2)cccc1-c1cccc(-c2nc3cc(CN4CC[C@@H](C)C4)cc(C#N)c3o2)c1C` [Example 131, ((2-(3′-(7-cyano-5-(((R)-3-methylpyrrolidin-1-yl)methyl)benzo[d]oxazol-2-yl)-2,2′-dimethyl-[1,1′-biphenyl]-3-yl)-6-(difluoromethoxy)benzo[d]oxazol-5-yl)methyl)-L-proline] showed an IC50 on PD-1/PD-L1 (numeric values) of 2.3 nM. In data set [1], this molecule returned a concentration at 0.5 h of 108 ng/mL, a concentration at 2 h of 301 ng/mL and a concentration at 4 h of 470 ng/mL.

With `Cc1c(-c2nc3cc(CN4CCCC4)c(OC(F)F)cc3o2)cccc1-c1cccc(-c2nc3cc(CN4CCC[C@@H]4C(=O)O)c(OC(F)F)cc3o2)c1C` [Example 66, ((6-(difluoromethoxy)-2-(3′-(6-(difluoromethoxy)-5-(pyrrolidin-1-ylmethyl)benzo[d]oxazol-2-yl)-2,2′-dimethyl-[1,1′-biphenyl]-3-yl)benzo[d]oxazol-5-yl)methyl)-D-proline], on PD-1/PD-L1 (numeric values), the 50% inhibitory concentration (IC50) turned out to be 1.8 nM. In data set [1], this molecule displayed a concentration at 2 h of 137 ng/mL and a concentration at 4 h of 111 ng/mL.

At PD-1/PD-L1 (numeric values), `Cc1c(-c2nc3c(o2)CCOC3)cccc1-c1cccc(-c2nc3cc(CN4CCC[C@H]4C(=O)O)c(OC(F)F)cc3o2)c1C` [Example 203, ((6-(difluoromethoxy)-2-(3′-(6,7-dihydro-4H-pyrano[3,4-d]oxazol-2-yl)-2,2′-dimethyl-[1,1′-biphenyl]-3-yl)benzo[d]oxazol-5-yl)methyl)proline] gave an IC50 of 12 nM. Further, in data set [1], the concentration at 0.5 h is 819 ng/mL, the concentration at 2 h came to 1030 ng/mL and the concentration at 4 h was determined as 833 ng/mL.

Take `COc1nc(-c2cccc(-c3cccc(-c4nc5cc(CN6CCC[C@H]6C(=O)O)c(OC(F)F)cc5o4)c3C)c2C)ccc1CN1CC[C@H](C)C1` [Example 246, ((6-(difluoromethoxy)-2-(3′-(6-methoxy-5-(((S)-3-methylpyrrolidin-1-yl)methyl)pyridin-2-yl)-2,2′-dimethyl-[1,1′-biphenyl]-3-yl)benzo[d]oxazol-5-yl)methyl)-L-proline]: the IC50 at PD-1/PD-L1 (numeric values) is 1.8 nM. In data set [1], this molecule came in with a concentration at 0.5 h of 87.2 ng/mL, a concentration at 2 h of 261 ng/mL and a concentration at 4 h of 285 ng/mL.

`Cc1c(-c2nc3cc(CN4CCN(C)C(C)C4)c(OC(F)F)cc3o2)cccc1-c1cccc(-c2nc3cc(CN4CCC[C@H]4C(=O)O)c(OC(F)F)cc3o2)c1C` (stereo partly drawn) [Example 23, ((6-(difluoromethoxy)-2-(3′-(6-(difluoromethoxy)-5-((3,4-dimethylpiperazin-1-yl)methyl)benzo[d]oxazol-2-yl)-2,2′-dimethyl-[1,1′-biphenyl]-3-yl)benzo[d]oxazol-5-yl)methyl)-L-proline] had an IC50 at PD-1/PD-L1 (numeric values) of 7.7 nM. In data set [1], this molecule displayed a concentration at 0.5 h of 46.2 ng/mL, a concentration at 2 h of 148 ng/mL and a concentration at 4 h of 94.7 ng/mL.

In the case of `Cc1c(-c2nc3c(o2)CCC3)cccc1-c1cccc(-c2nc3cc(CN4CCC[C@H]4C(=O)O)c(OC(F)F)cc3o2)c1C` [Example 204, ((6-(difluoromethoxy)-2-(3′-(5,6-dihydro-4H-cyclopenta[d]oxazol-2-yl)-2,2′-dimethyl-[1,1′-biphenyl]-3-yl)benzo[d]oxazol-5-yl)methyl)proline], the IC50 at PD-1/PD-L1 (range symbols) was 0.1 to 5 nM. In data set [1], the concentration at 0.5 h was found to be 740 ng/mL, the concentration at 2 h is 872 ng/mL and the concentration at 4 h is 820 ng/mL.

Regarding `Cc1c(-c2nc3c(o2)CCN(CCCC(F)(F)F)C3)cccc1-c1cccc(-c2nc3cc(CN4CCC[C@H]4C(=O)O)c(OC(F)F)cc3o2)c1C` [Example 191, ((6-(difluoromethoxy)-2-(2,2′-dimethyl-3′-(5-(4,4,4-trifluorobutyl)-4,5,6,7-tetrahydrooxazolo[4,5-c]pyridin-2-yl)-[1,1′-biphenyl]-3-yl)benzo[d]oxazol-5-yl)methyl)proline], the IC50 on PD-1/PD-L1 (range symbols) was in the range of 5 to 50 nM. Also, in data set [1], the concentration at 0.5 h was 520 ng/mL, the concentration at 2 h worked out at 1170 ng/mL and the concentration at 4 h stood at 1330 ng/mL.

As for `COc1nc(-c2cccc(-c3cccc(-c4nc5cc(CN6CCC[C@H]6C(=O)O)c(OC(F)F)cc5o4)c3C)c2C)ccc1CNCC1CCC(=O)N1` (stereo partly drawn) [Example 276, ((6-(difluoromethoxy)-2-(3′-(6-methoxy-5-((((5-oxopyrrolidin-2-yl)methyl)amino)methyl)pyridin-2-yl)-2,2′-dimethyl-[1,1′-biphenyl]-3-yl)benzo[d]oxazol-5-yl)methyl)-L-proline], the IC50 at PD-1/PD-L1 (range symbols) was 0.1 to 5 nM. In data set [1], this molecule returned a concentration at 0.5 h of 131 ng/mL, a concentration at 2 h of 291 ng/mL and a concentration at 4 h of 238 ng/mL.
